According to patent publication US20230399324A1, “AGENTS FOR TREATING DISORDERS INVOLVING RYANODINE RECEPTORS” (ARMGO Pharma, Inc., priority 2020, published 2023):
Where “and” joins values, the source holds several entries; their conditions need not be identical. Equal entries are not always repeated. Entries after “also recorded” stand apart in the source; their conditions may differ. Where two headings read alike, the source gives them in different places.

Tests used:
[1] = system: cardiomyocytes isolated from mouse heart; assay: Inhibition of unstimulated calcium release events in cardiomyocytes (isoproterenol-induced); assay type: cell-based, C57BL/6 mice; settings: Cardiomyocyte, 10 μM compound, isoproterenol 1 uM, percent inhibition of controls B vs A
Method: Compounds of the disclosure were evaluated for an effect on isoproterenol-induced inhibition of unstimulated calcium release events in cardiomyocytes isolated from mouse heart.
Adult cardiomyocytes are isolated from female, 28-32 grams C57BL/6 mice using a perfusion solution containing Liberase TH (Sigma Aldrich, #05-401-151001). After isolation, Ca^2+ is reintroduced in 5 steps at 4 min intervals. Then cells are plating (Time Cero) with a density of 5000-7000 rod cells in 100 μl of Cardiomyocyte Culture Medium (MEM, Invitrogen, #11575-032) containing Blebbistatin and compound treatment at various concentrations (0.01 to 10 uM). After 1 hrs of compound treatment cells are treated with Isoproterenol (1 uM). After 2 hrs of compound treatment cells are loaded with a Ca^2+ indicator (Fluo-4-AM, Invitrogen #F14202). After 3 hrs of compound treatment MEM is quickly but gently removed and the cells re-suspended in recording solution (Ca^2+ 2 mM, Isoproterenol 1 uM) for field stimulations using custom-designed electrodes. Cells are stimulated for 20 seconds at 0.5 Hz, then for 5 seconds at 5 Hz.
One Study=3 experiments. One experiment=1 mouse. Each experiment has 3 controls in triplicate: • A) Ca^2+ • B) Ca^2++Isoproterenol • C) Ca^2++Isoproterenol+Control Compound.
The first step in the analysis is to determine the number of responders based on four conditions. Responders are then analyzed to determine the number of unstimulated calcium release events, which are peaks of sufficient intensity, measured in the post-5 Hz stimulation period. Effect of test compounds (Ca^2++Isoproterenol+Test Compound in triplicate) are expressed as a percent inhibition of the controls B vs A.
All compounds were tested at 10 μM.

[2] = target: T1, RyR2 (Homo sapiens, UniProt Q92736); assay: 35S-labelled Calstabin2 binding to human HD cortex microsomes, dose curve; settings: FIG. 2
Target sequence in this assay (Q92736 whole entry): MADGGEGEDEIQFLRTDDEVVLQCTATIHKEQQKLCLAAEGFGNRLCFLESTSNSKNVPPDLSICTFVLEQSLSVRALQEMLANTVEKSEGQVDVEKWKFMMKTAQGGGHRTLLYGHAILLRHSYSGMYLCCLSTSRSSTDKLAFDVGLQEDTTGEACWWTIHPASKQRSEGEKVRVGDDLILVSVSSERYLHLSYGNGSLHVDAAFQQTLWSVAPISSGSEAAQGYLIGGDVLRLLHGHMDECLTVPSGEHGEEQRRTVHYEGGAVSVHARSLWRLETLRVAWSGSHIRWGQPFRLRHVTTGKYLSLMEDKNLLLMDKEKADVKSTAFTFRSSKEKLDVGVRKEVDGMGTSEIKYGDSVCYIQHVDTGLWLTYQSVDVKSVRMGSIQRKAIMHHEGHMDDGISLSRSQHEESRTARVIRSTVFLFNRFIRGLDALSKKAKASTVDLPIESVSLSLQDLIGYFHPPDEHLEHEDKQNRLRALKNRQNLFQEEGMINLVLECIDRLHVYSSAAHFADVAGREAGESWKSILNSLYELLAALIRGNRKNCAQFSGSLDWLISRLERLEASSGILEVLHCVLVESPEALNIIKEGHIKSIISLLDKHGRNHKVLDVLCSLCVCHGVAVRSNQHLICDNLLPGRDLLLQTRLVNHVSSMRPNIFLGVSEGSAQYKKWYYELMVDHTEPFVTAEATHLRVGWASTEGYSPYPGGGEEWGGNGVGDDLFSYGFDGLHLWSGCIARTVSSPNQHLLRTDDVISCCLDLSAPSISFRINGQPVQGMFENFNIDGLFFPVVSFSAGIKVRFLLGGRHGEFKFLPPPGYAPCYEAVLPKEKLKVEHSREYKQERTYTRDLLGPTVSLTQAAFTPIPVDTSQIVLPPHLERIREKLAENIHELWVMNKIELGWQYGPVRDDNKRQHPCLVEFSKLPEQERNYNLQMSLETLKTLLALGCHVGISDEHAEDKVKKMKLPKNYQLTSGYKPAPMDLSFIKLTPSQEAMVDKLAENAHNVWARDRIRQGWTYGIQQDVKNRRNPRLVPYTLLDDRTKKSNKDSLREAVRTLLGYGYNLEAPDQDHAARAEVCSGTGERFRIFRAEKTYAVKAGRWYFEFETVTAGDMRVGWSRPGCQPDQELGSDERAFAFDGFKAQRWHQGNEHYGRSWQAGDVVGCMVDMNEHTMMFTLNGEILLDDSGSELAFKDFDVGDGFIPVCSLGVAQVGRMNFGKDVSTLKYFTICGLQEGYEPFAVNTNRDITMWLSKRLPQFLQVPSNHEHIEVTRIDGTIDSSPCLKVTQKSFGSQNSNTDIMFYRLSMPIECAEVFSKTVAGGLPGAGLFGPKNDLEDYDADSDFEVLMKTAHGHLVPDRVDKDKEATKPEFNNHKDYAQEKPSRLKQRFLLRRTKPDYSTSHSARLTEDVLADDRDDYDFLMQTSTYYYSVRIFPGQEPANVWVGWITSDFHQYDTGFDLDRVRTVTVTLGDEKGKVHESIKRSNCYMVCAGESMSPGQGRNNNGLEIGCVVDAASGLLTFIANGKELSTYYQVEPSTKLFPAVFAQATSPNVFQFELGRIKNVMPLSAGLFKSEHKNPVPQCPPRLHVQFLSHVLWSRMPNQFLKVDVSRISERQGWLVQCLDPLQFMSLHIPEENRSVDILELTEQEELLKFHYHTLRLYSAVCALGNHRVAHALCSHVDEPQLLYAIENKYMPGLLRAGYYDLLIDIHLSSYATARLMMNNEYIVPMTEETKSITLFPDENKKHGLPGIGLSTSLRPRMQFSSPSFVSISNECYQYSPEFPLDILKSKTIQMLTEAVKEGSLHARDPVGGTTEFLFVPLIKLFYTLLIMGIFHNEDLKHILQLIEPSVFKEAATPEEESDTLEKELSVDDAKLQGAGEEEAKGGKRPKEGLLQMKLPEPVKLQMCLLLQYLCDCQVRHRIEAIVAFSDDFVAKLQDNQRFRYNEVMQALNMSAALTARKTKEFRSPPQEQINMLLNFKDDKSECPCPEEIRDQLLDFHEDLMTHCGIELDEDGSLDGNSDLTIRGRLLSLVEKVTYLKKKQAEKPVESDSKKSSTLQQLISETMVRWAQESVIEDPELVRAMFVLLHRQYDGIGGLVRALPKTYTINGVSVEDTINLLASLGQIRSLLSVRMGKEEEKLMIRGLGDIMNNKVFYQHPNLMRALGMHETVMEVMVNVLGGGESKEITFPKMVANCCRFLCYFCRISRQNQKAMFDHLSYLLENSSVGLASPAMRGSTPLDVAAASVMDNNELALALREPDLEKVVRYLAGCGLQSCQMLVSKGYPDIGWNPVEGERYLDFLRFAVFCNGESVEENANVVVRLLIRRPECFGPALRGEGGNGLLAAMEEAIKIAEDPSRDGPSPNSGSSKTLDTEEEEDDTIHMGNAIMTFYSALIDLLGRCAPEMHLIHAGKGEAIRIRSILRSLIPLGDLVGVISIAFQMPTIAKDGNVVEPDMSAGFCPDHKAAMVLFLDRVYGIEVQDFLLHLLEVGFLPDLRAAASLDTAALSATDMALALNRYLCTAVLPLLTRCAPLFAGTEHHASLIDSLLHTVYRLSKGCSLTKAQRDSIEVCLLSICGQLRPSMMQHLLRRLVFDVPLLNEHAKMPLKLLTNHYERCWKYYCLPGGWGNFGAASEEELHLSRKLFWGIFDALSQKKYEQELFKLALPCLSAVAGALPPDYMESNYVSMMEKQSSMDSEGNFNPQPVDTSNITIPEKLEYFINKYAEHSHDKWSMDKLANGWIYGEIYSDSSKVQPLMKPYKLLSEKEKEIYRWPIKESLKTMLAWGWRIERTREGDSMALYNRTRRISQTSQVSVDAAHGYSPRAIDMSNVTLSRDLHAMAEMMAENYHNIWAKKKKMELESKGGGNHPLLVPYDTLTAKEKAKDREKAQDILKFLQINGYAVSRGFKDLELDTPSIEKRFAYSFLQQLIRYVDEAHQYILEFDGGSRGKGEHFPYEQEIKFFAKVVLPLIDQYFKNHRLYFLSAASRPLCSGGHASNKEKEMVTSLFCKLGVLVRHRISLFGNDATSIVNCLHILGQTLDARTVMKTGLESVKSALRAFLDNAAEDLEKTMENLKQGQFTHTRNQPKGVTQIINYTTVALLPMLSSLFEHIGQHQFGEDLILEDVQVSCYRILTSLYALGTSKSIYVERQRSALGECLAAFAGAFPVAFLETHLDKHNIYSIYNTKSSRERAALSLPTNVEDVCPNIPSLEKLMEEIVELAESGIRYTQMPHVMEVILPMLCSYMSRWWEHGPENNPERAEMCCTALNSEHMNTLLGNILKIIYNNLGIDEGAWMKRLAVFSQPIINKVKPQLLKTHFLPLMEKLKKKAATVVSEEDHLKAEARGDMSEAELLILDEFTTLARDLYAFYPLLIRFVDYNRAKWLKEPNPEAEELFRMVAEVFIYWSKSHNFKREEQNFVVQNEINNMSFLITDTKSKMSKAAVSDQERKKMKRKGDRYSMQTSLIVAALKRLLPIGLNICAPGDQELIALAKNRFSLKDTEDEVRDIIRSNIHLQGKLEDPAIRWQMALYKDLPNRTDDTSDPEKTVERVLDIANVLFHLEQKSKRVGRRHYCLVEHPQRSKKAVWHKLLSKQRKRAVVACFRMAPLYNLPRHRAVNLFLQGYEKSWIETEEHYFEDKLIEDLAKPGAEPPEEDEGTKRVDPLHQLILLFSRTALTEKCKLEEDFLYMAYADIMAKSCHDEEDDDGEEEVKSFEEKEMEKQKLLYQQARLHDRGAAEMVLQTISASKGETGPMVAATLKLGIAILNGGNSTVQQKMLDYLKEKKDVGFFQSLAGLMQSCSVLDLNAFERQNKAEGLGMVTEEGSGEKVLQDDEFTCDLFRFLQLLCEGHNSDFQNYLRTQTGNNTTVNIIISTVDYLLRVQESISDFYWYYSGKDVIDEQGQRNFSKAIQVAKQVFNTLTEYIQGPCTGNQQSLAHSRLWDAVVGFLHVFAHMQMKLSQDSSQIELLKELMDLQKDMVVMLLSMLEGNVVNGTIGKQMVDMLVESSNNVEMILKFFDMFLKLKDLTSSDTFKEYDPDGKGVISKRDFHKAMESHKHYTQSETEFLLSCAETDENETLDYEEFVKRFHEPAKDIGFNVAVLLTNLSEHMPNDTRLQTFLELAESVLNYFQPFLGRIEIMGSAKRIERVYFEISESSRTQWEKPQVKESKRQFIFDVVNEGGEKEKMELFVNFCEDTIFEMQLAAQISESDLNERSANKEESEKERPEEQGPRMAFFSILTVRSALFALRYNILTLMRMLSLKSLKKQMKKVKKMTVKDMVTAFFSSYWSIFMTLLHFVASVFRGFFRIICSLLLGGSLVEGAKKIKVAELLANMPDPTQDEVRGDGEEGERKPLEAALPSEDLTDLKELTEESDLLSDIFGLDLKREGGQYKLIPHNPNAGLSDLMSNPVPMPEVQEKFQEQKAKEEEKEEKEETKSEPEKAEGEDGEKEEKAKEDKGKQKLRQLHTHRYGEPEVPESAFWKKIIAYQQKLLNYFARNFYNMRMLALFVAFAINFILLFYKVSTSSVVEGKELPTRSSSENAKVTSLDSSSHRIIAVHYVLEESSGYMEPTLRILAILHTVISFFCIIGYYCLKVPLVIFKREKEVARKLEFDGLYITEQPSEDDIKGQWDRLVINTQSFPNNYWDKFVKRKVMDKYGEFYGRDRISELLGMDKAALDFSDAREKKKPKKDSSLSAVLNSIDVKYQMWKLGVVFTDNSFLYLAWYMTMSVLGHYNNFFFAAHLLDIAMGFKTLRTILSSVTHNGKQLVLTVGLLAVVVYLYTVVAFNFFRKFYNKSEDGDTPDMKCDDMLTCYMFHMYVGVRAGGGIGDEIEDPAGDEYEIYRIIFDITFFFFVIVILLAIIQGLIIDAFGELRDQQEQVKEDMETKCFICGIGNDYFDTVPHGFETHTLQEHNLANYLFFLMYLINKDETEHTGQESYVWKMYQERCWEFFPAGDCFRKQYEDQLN
Target sequence in this assay (P68106 whole entry, further chain): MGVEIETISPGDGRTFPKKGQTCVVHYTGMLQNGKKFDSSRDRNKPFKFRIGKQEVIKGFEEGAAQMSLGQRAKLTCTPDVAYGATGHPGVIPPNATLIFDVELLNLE

[3] = Oral bioavailability and pharmacokinetics in blood plasma after oral gavage; assay type: in vivo, Sprague-Dawley rats; settings: Sprague-Dawley; for Cmax: po
Method: (§1) Analytical instrument: Waters Acquity Class H UPLC equipped with Waters SQ3100 mass detector.
1). Initial non-terminal assessment of compound oral bioavailability and pharmacokinetics in blood plasma.
Sprague-Dawley rats were dosed via oral gavage (20 mg/kg); blood samples were drawn at 30 min, 1 h, 4 h and 12 h and plasma concentrations were determined via UPLC/MS. The 12-hour exposure (AUC12, Table 2) was determined via trapezoidal integration of the observed concentrations.
(§2) The concentration results were used to estimate PK parameters (i.e. C0, T1/2, Vd, AUCinf) based on noncompartmental distribution and mono-exponential concentration decay. The half-life value thus obtained was also used to estimate the AUCinf for the PO dosing.

[4] = Brain exposure: brain and plasma concentrations 4 h after oral administration; assay type: in vivo; settings: Sprague-Dawley, rat, PO 20 mg/kg; for concentration at 4 h: terminal sampling
Method: as §1
Brain and plasma concentrations 4 h after oral administration (corresponding to Tmax in the first experiment) were determined via UPLC/MS, and the corresponding brain-to-plasma ratio values were calculated.

[5] = Pharmacokinetics by intravenous (IV) dosing (tail vein); assay type: in vivo, rat
Method: Additional PK parameters were obtained using IV dosing to complement the oral PK data and to determine absolute oral bioavailability. Compounds were administered via tail vein injection and blood samples were obtained at 30 min, 1 h, 4 h and 12h. The drug concentration in plasma was determined via UPLC/MS.
as §2

[6] = Morning and evening plasma and brain exposure after 1-week dosing in drinking water; assay type: in vivo; settings: rat; for Brain / Plasma: 1 week
[7] = target: T1, RyR2; assay: Calstabin2 binding to RyR2 immunoprecipitated from human HD cortex lysate (immunoblot); settings: FIG. 1
Method: Brain microsomes were prepared from human hippocampus and cortex samples taken from HD patients. Control samples were from patients that were negative in neuropathological diagnoses.
RyR2 was immunoprecipitated from Cortex lysate (+/−various concentrations of Compound 2) with an RyR2 specific antibody (2 μg) in 0.5 ml of a modified RIPA buffer (50 mM Tris-HCl pH 7.2 0.9% NaCl, 5.0 mM NaF, 1.0 mM Na3VO4, 1% Triton-X100, and protease inhibitors) and left overnight at 4° C. The immune complexes were incubated with protein A Sepharose beads at 4° C. for 1 h and the beads are washed three times with RIPA buffer. […] Immunoblots were developed using antibodies against RyR and Calstabin.

[8] = system: RyR; assay: RyR mediated calcium leak from human HD cortex microsomes (Fluo-4, thapsigargin); assay type: biochemical; settings: thapsigargin 3 μM, FIG. 3
Method: Human cortex Microsomes (5 μg/ml) were diluted into a 20 mM HEPES buffer (pH 7.2) containing 7 mM NaCl, 1.5 mM MgCl2, 120 mM K-gluconate, 5 mM K-phosphate, 8 mM K-phosphocreatine, 1 μM EGTA and 2 μM CaCl2) mixed with 3 μM Fluo-4 and added to multiple wells of a 96-well plate. Calcium (Ca^2+) loading of the microsomes was initiated by adding 1 mM ATP. After Ca^2+ uptake, 3 μM thapsigargin was added. (A)—Representative traces of Ca^2+ leak from Human cortex microsomes induced by addition of thapsigargin (3 μM). (B)—Ca^2+ leak was calculated as the percent increase in signal after addition of thapsigargin. Data (mean±SEM) analysis was performed by Student t-test (n=2 for each group) **P<0.01.

[9] = target: T1, RyR2; assay: biochemical
Target sequence in this assay (Q92736 whole entry): as the sequence (Q92736 whole entry) above
Target sequence in this assay (P68106 whole entry, further chain): as the sequence (P68106 whole entry, further chain) above

[10] = 5 mg/kg/day in drinking water, 7:00AM, 5 mg/kg/day
[11] = 5 mg/kg/day in drinking water, 7:00PM, 5 mg/kg/day
[12] = 20 mg/kg/day in drinking water, 7:00AM, 20 mg/kg/day
[13] = 20 mg/kg/day in drinking water, 7:00PM, 20 mg/kg/day

Question: For `O=C(N1CCNCC1)N1CCSc2c(cccc2C(F)(F)F)C1` [Compound 3, piperazin-1-yl(9-(trifluoromethyl)-2,3-dihydrobenzo[f][1,4]thiazepin-4(5H)-yl)methanone], which inhibition at 10 µM [1] is on record?
Answer: 85%

Question: Which inhibition at 10 µM [1] does the source give for `O=C(N1CCNCC1)N1CCSc2cc(F)c(F)cc2C1` [Compound 6, (7,8-difluoro-2,3-dihydrobenzo[f][1,4]thiazepin-4(5H)-yl)(piperazin-1-yl)methanone] here?
Answer: 71%

Question: With `O=C(N1CCNCC1)N1CCSc2cccc(Br)c2C1` [Compound 9, (6-bromo-2,3-dihydrobenzo[f][1,4]thiazepin-4(5H)-yl)(piperazin-1-yl)methanone] as the compound, how does the inhibition at 10 µM [1] read?
Answer: 89%

Question: With `O=C(N1CCNCC1)N1CCSc2cccc(I)c2C1` [Compound 10, (6-iodo-2,3-dihydrobenzo[f][1,4]thiazepin-4(5H)-yl)(piperazin-1-yl)methanone] as the compound, how does the inhibition at 10 µM [1] read?
Answer: 74%

Question: For `O=C(N1CCNCC1)N1CCSc2ccc(OC(F)(F)F)cc2C1` [Compound 4, piperazin-1-yl(7-(trifluoromethoxy)-2,3-dihydrobenzo[f][1,4]thiazepin-4(5H)-yl)methanone], which inhibition at 10 µM [1] is on record?
Answer: 142%

Question: Which inhibition at 10 µM [1] does the source give for `O=C(N1CCNCC1)N1CCSc2cccc(Cl)c2C1` [Compound 7, (6-chloro-2,3-dihydrobenzo[f][1,4]thiazepin-4(5H)-yl)(piperazin-1-yl)methanone] here?
Answer: 89%

Question: Which inhibition at 10 µM [1] does the source give for `O=C(N1CCNCC1)N1CCSc2cc(C(F)(F)F)ccc2C1` [Compound 1, piperazin-1-yl(8-(trifluoromethyl)-2,3-dihydrobenzo[f][1,4]thiazepin-4(5H)-yl)methanone] here?
Answer: 95 to 96%

Question: Which inhibition at 10 µM [1] does the source give for `O=C(N1CCNCC1)N1CCSc2cccc(C(F)(F)F)c2C1` [Compound 5, piperazin-1-yl(6-(trifluoromethyl)-2,3-dihydrobenzo[f][1,4]thiazepin-4(5H)-yl)methanone] here?
Answer: 92%

Question: With `COc1ccc2c(c1)CN(C)CCS2` [Compound S107, reference compound] as the compound, how does the “Calstabin2 binding to HD microsomes, concentration dependence” value [2] read?
Answer: increase Calstabin2 binding to HD microsomes in a concentration dependent manner

Question: Which inhibition at 10 µM [1] does the source give for `O=C(N1CCNCC1)N1CCSc2ccc(C(F)(F)F)cc2C1` [Compound 2, piperazin-1-yl(7-(trifluoromethyl)-2,3-dihydrobenzo[f][1,4]thiazepin-4(5H)-yl) methanone] here?
Answer: 86 to 94%

Question: And the AUC(0-inf) ([3]; rat, plasma, oral, 20 mg/kg)?
Answer: 2.73 µg·h/mL

Question: What about the Cmax ([3]; rat, plasma, 20 mg/kg, rat plasma, PO 20 mg/kg, Table 4 summary, read-out: Cmax C4 h) of the same compound?
Answer: 0.32 µg/mL

Question: And the Cmax ([3]; rat, plasma, 20 mg/kg, rat plasma, PO 20 mg/kg, read-out: Cmax)?
Answer: 210 ng/mL and 610 nM

Question: What about the Tmax ([3]; rat plasma, PO 20 mg/kg) of the same compound?
Answer: 4 h

Question: And the AUC(0-t) ([3]; rat plasma, PO 20 mg/kg, 12 h, trapezoidal, read-out: AUCt (12 h))?
Answer: 2090 ng·h/mL and 6.06 µM·h

Question: And the concentration at 4 h ([4]; brain, read-out: Brain C4 h)?
Answer: 2160 ng/g and 6.25 µM

Question: What about the Kp at 4 h ([4]; brain/plasma) of the same compound?
Answer: 5.1

Question: What about the concentration at 4 h ([4]; plasma, read-out: Plasma C4 h) of the same compound?
Answer: 420 ng/mL and 1.22 µM

Question: What about the Vd ([5]; plasma, rat, IV bolus 2 mg/kg) of the same compound?
Answer: 10.9 L/kg

Question: What about the half-life ([5]; plasma, rat, IV bolus 2 mg/kg, read-out: T½ (converted)) of the same compound?
Answer: 2.77 h

Question: What about the AUC(0-inf) ([5]; rat plasma, IV bolus 2 mg/kg) of the same compound?
Answer: 0.736 µg·h/mL

Question: And the concentration at 30 min ([5]; rat plasma, IV bolus 2 mg/kg, 30 min, read-out: C 1st time (30 min))?
Answer: 0.18 µg/mL

Question: What about the “F % PO/IV bolus” value ([5]; rat, PO 20 mg/kg vs IV bolus 2 mg/kg) of the same compound?
Answer: 37%

Question: And the Brain [6, 10]?
Answer: 0.50 ± 0.12 μg/g and 1.44 ± 0.36 μM

Question: And the Plasma [6, 10]?
Answer: 0.09 ± 0.03 μg/mL and 0.25 ± 0.08 μM

Question: And the Brain [6, 11]?
Answer: 0.12 ± 0.08 μg/g and 0.36 ± 0.22 μM

Question: And the Plasma [6, 11]?
Answer: 0.02 ± 0.01 μg/mL and 0.07 ± 0.02 μM

Question: And the Brain [6, 12]?
Answer: 3.05 ± 0.71 μg/g and 8.82 ± 2.05 μM

Question: And the Plasma [6, 12]?
Answer: 0.42 ± 0.02 μg/mL and 1.22 ± 0.05 μM

Question: What about the Brain [6, 13] of the same compound?
Answer: 1.20 ± 0.96 μg/g and 3.48 ± 2.79 μM

Question: What about the Plasma [6, 13] of the same compound?
Answer: 0.20 ± 0.12 μg/mL and 0.58 ± 0.36 μM

Question: What about the “brain exposure after a week of dosing” value ([6]; 1 week in drinking water) of the same compound?
Answer: has brain exposure

Question: And the “plasma and tissue exposure levels, morning versus evening” value ([6]; 1 week in drinking water)?
Answer: higher in the morning than in the evening

Question: And the “Calstabin2/RyR2 binding in HD brain microsome lysates” value [7]?
Answer: improves Calstabin2/RyR2 binding; also recorded: improves Calstabin rebinding to RyR2

Question: And the “calcium leak from HD microsomes” value [8]?
Answer: decreases calcium leak from HD microsomes

Question: What about the EC50 [9] of the same compound?
Answer: 0.1 µM

Question: And the “Calstabin2 binding to HD microsomes, concentration dependence” value [2]?
Answer: increase Calstabin2 binding to HD microsomes in a concentration dependent manner

Question: For `O=C(N1CCNCC1)N1CCSc2cccc(OC(F)(F)F)c2C1` [Compound 8, piperazin-1-yl(6-(trifluoromethoxy)-2,3-dihydrobenzo[f][1,4]thiazepin-4(5H)-yl)methanone], which inhibition at 10 µM [1] is on record?
Answer: 80%
